From US10632135B2, “Orally available compounds, a process for preparing the same and their uses as anti-adhesive drugs for treating E. coli induced inflammatory bowel diseases such as crohn's disease” (CENTRE NATIONAL DE LA RECHERCHE SCIENTIFIQUE, priority 2014, dated 2020)

What was measured:
[1] = tested on: HUV-EC-C, CCD-18Co, MRC-5 and PWR-1E normal cell lines; assay type: cell-based, Human
Experimental: Compounds 10 and 22′ were extemporaneously dissolved at 100 mM in water to obtain a stock solution.
The final concentrations of compounds 10 and 22′ were 100 nM, 1 μM, 10 μM, 100 μM and 1 mM within wells.
The 4 cell lines were plated at optimal density per well in 96-well plates. Plates were incubated at 37° C. for 24 hours before treatment, in drug-free culture medium.
Cell lines were then incubated for 96 hours at 37° C. under 5% CO2 with the 5 concentrations of compounds 10 or 22′ in 1:10 dilution steps. Each concentration was done in triplicate. Control cells were treated with vehicle alone (water).
The dose response for index of cytotoxicity (IC) is expressed as following: […]
IC50 represents the drug concentration required to obtain 50% of cellular cytotoxicity. The
IC50 determination values were calculated from semi-log curves.

[2] = tested on: Adherent-Invasive E. coli strain LF82 adhesion to intestinal epithelial cells T84; assay: Adhesion of Adherent-Invasive E. coli LF82 to intestinal epithelial cells T84 in presence of monovalent compounds (pre-, co- and post-incubation); assay type: cell-based
Experimental: E. coli strain LF82 was isolated from a chronic ileal lesion of a patient with Crohn's disease (CD). Bacteria were grown routinely in Luria-Bertani (LB) broth overnight at 37° C. Intestinal epithelial cells T84 derived from colonic adenocarcinoma were maintained in an atmosphere containing 5% CO2 at 37° C. in DMEM/F12 (50/50) medium supplemented with 10% (v/v) heat-inactivated fetal calf serum (FCS), 1% L-glutamine, 100 000 U·l^−1 penicillin, 100 mg·l^−1 streptomycin, 25 μg·l^−1 amphotericin B.
T84 were seeded in 48-well plates at a concentration of 1.5×10^5 cells per well and grown for 48 h. AIEC LF82 bacteria were incubated 1 h with monovalent compounds prior the cell infection (pre-incubation protocol) or they were added simultaneously onto the cells (co-incubation protocol) in complete medium without antibiotics, containing heat inactivated fetal calf serum (FCS). Monovalent compound 10 was tested at a dose of 100; 10; 1 (and 0.1) μM, compound 5 was tested at a dose of 500; 100; 10 and 1 μM and D-mannose was tested at a dose of 10 000; 1 000; 100 or 10 μM. Cells were infected with AIEC LF82 bacteria at a multiplicity of infection (MOI) of 10 bacteria per cell for 3 h at 37° C.
For the post-incubation protocol, monovalent compounds (same doses than in the pre- and co-incubation assays) were incubated with cells for 3 h after bacterial infection. A washing step was realized before this post-incubation to eliminate non-adherent bacteria.
Monolayers were washed in phosphate-buffered saline (PBS; pH 7.2) and cells were then lysed with 1% Triton X-100 in deionized water. […] Results were expressed as percentages of residual adhesion, considering adhesion level of AIEC LF82 without mannosides treatment as 100%.
D-mannose, compounds 5 and 10 were assessed as putative inhibitors to compete the interaction of CEACAM6 expressed by T84 intestinal epithelial cells with the adhesin FimH of AIEC bacteria following three different protocols: pre-, co- and post-incubation experiments (FIG. 1).

| Compound | cytotoxicity values of the control compound [1] | concentration at which a significant decrease in the bacterial adhesion level was obtained ([2]; co-incubation protocol, LF82 MOI 10, 3 h, T84 cells) | dose at which adhesion was decreased ([2]; post-incubation protocol) | concentration showing a significant inhibitory effect on the bacterial adhesion ([2]; pre-incubation protocol (bacteria incubated 1 h with compound before infection)) |
| --- | --- | --- | --- | --- |
| CC(=O)O[C@@]12CO[C@@H]1C[C@H](O)[C@@]1(C)C(=O)[C@H](O)C3=C(C)[C@@H](OC(=O)[C@H](O)[C@@H](NC(=O)OC(C)(C)C)c4ccccc4)C[C@@](O)([C@@H](OC(=O)c4ccccc4)[C@H]21)C3(C)C [Docetaxel] | consistent with known values of inherent toxicity |  |  |  |
| O=C[C@@H](O)[C@@H](O)[C@H](O)[C@H](O)CO [D-mannose] |  | 1 000 μM | 10 mM | 100 µM |
